# Measurements from patent US3989837A, “Pharmaceutical compositions” (Chinoin Gyogyszer-es Vegyeszeti Termekek Gyara RT, priority 1972, dated 1976).
# “And” between values parts separate entries of the source, which are not always exact repeats. Equal values may be shown once.
# How the values were obtained:
# kaolin oedema = assay: Kaolin oedema test (Table 1); assay type: in vivo, rat; set-up: oedema, treated: unit not given here; details: female rats
# Procedure: The experiments were performed on female rats weighing 110-130 g. divided into groups of 10 animals. The rats were starved for 24 hours prior to the experiment. The test substance was administered orally, the controls obtained the suspending solution without the active ingredient. 1 hour following drug administration the animals were injected s.c. 0.1 ml. of a suspension of 5% kaolin into the foot pad. During the following period the inflammatory reaction is manifested by a swelling of the foot. The diameter of the foot of the treated and control animals was measured 2, 3.5 and 5 hours after s.c. injection of kaolin. The efficiency of the test compound was calculated from the difference of the diameter of the foot in the treated and control animals. Significance was calculated with Student's t test and the effect of the drug was expressed also as per cent.
# granuloma formation = assay: Cotton pellet granuloma (Table 2); assay type: in vivo, rat; details: male rats, 7 days
# Procedure: The experiments were performed on male rats weighing 140-160 g. In ether anaesthesia a […]. cotton pellet was placed in each of two subcutaneous pockets in the dorsal region of the animal. The drug was administered orally during a period of 7 days. The controls received a drugfree suspension. The doses seen in the Table were administered in two portions, in the morning and in the afternoon, respectively. On the 8th day the animals were killed and the pellets were dissected. After removal of fat and extraneous tissue, the pellets were dried for 5 hours at 50° C and weighed. The weight of the cotton pellet before implantation was subtracted from the weight of the dried, dissected pellet and drug efficiency was calculated from the obtained difference. Significance was calculated with Student's t test and drug effect was expressed as per cent.
# writhing = assay: Analgesic effect, acetic acid writhing (Table 3); assay type: in vivo, mouse; details: male mice
# Procedure: Male mice weighing 15-18 g. and starved for 16 hours were used for the experiments. The drug was given orally, the control mice obtained a drug-free suspension. After 2 and 4 hours (2^h and 4^h respectively) the animals were injected with […], acetic acid solution (0.1 ml. per mouse) intraperitoneally. Upon the effect of the injection the animals reacted in a few minutes with writhing. […] Comparison of the number of writhes in the control and the treated animals served as a basis of evaluation of drug effect. Significance was calculated by Student's t test, and efficiency of the drug was expressed as per cent. Each experiment was performed on a group of 12-16 animals.
# mice = assay: Toxicity on mice by oral administration, once daily for 7 days (Table 4); assay type: in vivo; details: male mice
# Procedure: The experiments were performed on unstarved male mice of […]. body-weight.
# The compound was administered in the form of 1% suspension stabilized with methylcellulose. […] The animals obtained the drug once daily over a period of 7 dyas, i.e. 168 hours. The number of deaths was registered each day. LD50 values were calculated according to Litchfield and Wilcoxon.
# rats = assay: Testing of ulcerogenic effect in rats (Table 5); assay type: in vivo, rat; details: 5 days
# Procedure: Unstarved rats weighing 160-180 g. were used for the experiment. The animals were divided into groups of 20. The compounds were administered as 1% suspensions stabilized with methylcellulose, by the oral route, at a volume of 0.2 ml./100 g. Treatment was continued for 5 days (1 treatment/day), and was suspended on the 6th and 7th day. On the 8th experimental day the […] were killed by ether overdosage. After laparatomy the stomachs were removed, washed twice in water and thereafter dipped in formaline. An incision was made along the large curvature, then again rinced with water and spread on a PVC plate. The gastric mucosa is evaluated macroscopically by two methods:
# 1. The ulcer index was calculated. The animals were divided into groups on the ground of the diameter of the largest ulcer and the extent of the changes was scored as follows:
# The number of animals in the individual groups was multiplied by the number of scores and the proucts of multiplications are added and the sum thus obtained is divided by the number of animals.
# 2. Ulcer counts were calculated. The number of ulcers was counted on each stomach and the total number of ulcers was divided by the number of animals. […] Changes found in the intestinates were evaluated as "all or naught" and expressed in per cent of the number of animals.
# [1] = oral 13.7 mg./kg., 2 h after kaolin
# [2] = oral 13.7 mg./kg., 3.5 h after kaolin
# [3] = oral 13.7 mg./kg., 5 h after kaolin
# [4] = oral 34 mg./kg., 2 h after kaolin
# [5] = oral 34 mg./kg., 3.5 h after kaolin
# [6] = oral 34 mg./kg., 5 h after kaolin
# [7] = oral 51 mg./kg., 2 h after kaolin
# [8] = oral 51 mg./kg., 3.5 h after kaolin
# [9] = oral 51 mg./kg., 5 h after kaolin
smiles,measurement,setting,value
"COc1ccc2c(c1)c(CC(=O)OCC(Cl)(Cl)Cl)c(C)n2C(=O)c1ccc(Cl)cc1 [Example 5, 1-(p-chlorobenzoyl)-2-methyl-5-methoxy-indol-3-yl-acetic-acid trichloroethyl ester]",Inhibition of kaolin oedema,kaolin oedema; [1],9.8% and 10.6%
same,"oedema, treated",kaolin oedema; [1],2.39±0.36 and 2.28±0.50
same,Inhibition of kaolin oedema,kaolin oedema; [2],15.1% and 19.0%
same,"oedema, treated",kaolin oedema; [2],2.54±0.53 and 2.35±0.54
same,Inhibition of kaolin oedema,kaolin oedema; [3],22.2% and 15.1%
same,"oedema, treated",kaolin oedema; [3],2.56±0.53 and 2.77±0.58
same,Inhibition of kaolin oedema,kaolin oedema; [4],11.0% and 13.6%
same,"oedema, treated",kaolin oedema; [4],2.27±0.30 and 2.46±0.49
same,Inhibition of kaolin oedema,kaolin oedema; [5],22.1%
same,"oedema, treated",kaolin oedema; [5],2.26±0.30 and 2.47±0.41
same,Inhibition of kaolin oedema,kaolin oedema; [6],24.7% and 29.9%
same,"oedema, treated",kaolin oedema; [6],2.48±0.36 and 2.72±0.62
same,Inhibition of kaolin oedema,kaolin oedema; [7],19.5%
same,"oedema, treated",kaolin oedema; [7],1.86±0.32
same,Inhibition of kaolin oedema,kaolin oedema; [8],24.6%
same,"oedema, treated",kaolin oedema; [8],2.05±0.30
same,Inhibition of kaolin oedema,kaolin oedema; [9],26.4%
same,"oedema, treated",kaolin oedema; [9],2.23±0.28
same,Inhibition of granuloma formation,granuloma formation; oral 5.5 mg./kg.,19.5%
same,"granuloma tissue, treated",granuloma formation; oral 5.5 mg./kg.,56.7±11.1
same,Inhibition of granuloma formation,granuloma formation; oral 11 mg./kg.,24.8%
same,"granuloma tissue, treated",granuloma formation; oral 11 mg./kg.,52.0±17.8
same,Analgesic effect,"writhing; oral 5 mg./kg., 2 h",29.0% and 20.7%
same,"number of writhes, treated","writhing; oral 5 mg./kg., 2 h",28.0±9.5 and 41.1±12.2
same,Analgesic effect,"writhing; oral 5 mg./kg., 4 h",18.6% and 20.1%
same,"number of writhes, treated","writhing; oral 5 mg./kg., 4 h",32.1±12.4 and 41.4±12.6
same,Analgesic effect,"writhing; oral 17 mg./kg., 2 h",60.8% and 51.4%
same,Analgesic effect,"writhing; oral 17 mg./kg., 4 h",56.7% and 51.0%
same,"number of writhes, treated","writhing; oral 17 mg./kg., 4 h",13.7±10.7 and 20.6±12.3
same,Number of deaths/number of treated animals,"mice; oral 1000 mg/kg, 24 h",0/10
same,Number of deaths/number of treated animals,"mice; oral 1000 mg/kg, 48 h",0/10
same,Number of deaths/number of treated animals,"mice; oral 1000 mg/kg, 72 h",0/10
same,Number of deaths/number of treated animals,"mice; oral 1000 mg/kg, 96 h",0/10
same,Number of deaths/number of treated animals,"mice; oral 1000 mg/kg, 120 h",0/10
same,Number of deaths/number of treated animals,"mice; oral 1000 mg/kg, 144 h",0/10
same,Number of deaths/number of treated animals,"mice; oral 1000 mg/kg, 168 h",0/10
same,Number of deaths/number of treated animals,"mice; oral 1500 mg/kg, 24 h",0/10
same,Number of deaths/number of treated animals,"mice; oral 1500 mg/kg, 48 h",0/10
same,Number of deaths/number of treated animals,"mice; oral 1500 mg/kg, 72 h",0/10
same,Number of deaths/number of treated animals,"mice; oral 1500 mg/kg, 96 h",0/10
same,Number of deaths/number of treated animals,"mice; oral 1500 mg/kg, 120 h",0/10
same,Number of deaths/number of treated animals,"mice; oral 1500 mg/kg, 144 h",0/10
same,Number of deaths/number of treated animals,"mice; oral 1500 mg/kg, 168 h",0/10
same,Number of deaths/number of treated animals,"mice; oral 2000 mg/kg, 24 h",0/10
same,Number of deaths/number of treated animals,"mice; oral 2000 mg/kg, 48 h",0/10
same,Number of deaths/number of treated animals,"mice; oral 2000 mg/kg, 72 h",2/10
same,Number of deaths/number of treated animals,"mice; oral 2000 mg/kg, 96 h",2/10
same,Number of deaths/number of treated animals,"mice; oral 2000 mg/kg, 120 h",4/10
same,Number of deaths/number of treated animals,"mice; oral 2000 mg/kg, 144 h",6/10
same,Number of deaths/number of treated animals,"mice; oral 2000 mg/kg, 168 h",6/10
same,Number of deaths/number of treated animals,"mice; oral 2500 mg/kg, 24 h",0/10
same,Number of deaths/number of treated animals,"mice; oral 2500 mg/kg, 48 h",1/10
same,Number of deaths/number of treated animals,"mice; oral 2500 mg/kg, 72 h",1/10
same,Number of deaths/number of treated animals,"mice; oral 2500 mg/kg, 96 h",3/10
same,Number of deaths/number of treated animals,"mice; oral 2500 mg/kg, 120 h",4/10
same,Number of deaths/number of treated animals,"mice; oral 2500 mg/kg, 144 h",6/10
same,Number of deaths/number of treated animals,"mice; oral 2500 mg/kg, 168 h",7/10
same,Number of deaths/number of treated animals,"mice; oral 3000 mg/kg, 24 h",0/10
same,Number of deaths/number of treated animals,"mice; oral 3000 mg/kg, 48 h",1/10
same,Number of deaths/number of treated animals,"mice; oral 3000 mg/kg, 72 h",3/10
same,Number of deaths/number of treated animals,"mice; oral 3000 mg/kg, 96 h",4/10
same,Number of deaths/number of treated animals,"mice; oral 3000 mg/kg, 120 h",5/10
same,Number of deaths/number of treated animals,"mice; oral 3000 mg/kg, 144 h",7/10
same,Number of deaths/number of treated animals,"mice; oral 3000 mg/kg, 168 h",7/10
same,Deaths,rats; oral 27.3 mg./kg.,1/20
same,Number of surviving animals,rats; oral 27.3 mg./kg.,19
same,Per cent of animals exhibiting changes of intest. mucosa,rats; oral 27.3 mg./kg.,10.5 Per cent
same,Ulcer number,rats; oral 27.3 mg./kg.,0
same,Deaths,rats; oral 54.7 mg./kg.,5/20
same,Number of surviving animals,rats; oral 54.7 mg./kg.,15
same,Per cent of animals exhibiting changes of intest. mucosa,rats; oral 54.7 mg./kg.,80 Per cent
same,Ulcer number,rats; oral 54.7 mg./kg.,0.27
